In patent publication US11008301B2, “Piperidinone formyl peptide 2 receptor agonists” (BRISTOL-MYERS SQUIBB COMPANY, priority 2017, dated 2021) one finds EC50 data, which are given here for 57 molecules.

Where “and” joins values, the source holds several entries; their conditions need not be identical. Equal entries are not always repeated.

Sequence of human FPR2 (P25090 whole entry): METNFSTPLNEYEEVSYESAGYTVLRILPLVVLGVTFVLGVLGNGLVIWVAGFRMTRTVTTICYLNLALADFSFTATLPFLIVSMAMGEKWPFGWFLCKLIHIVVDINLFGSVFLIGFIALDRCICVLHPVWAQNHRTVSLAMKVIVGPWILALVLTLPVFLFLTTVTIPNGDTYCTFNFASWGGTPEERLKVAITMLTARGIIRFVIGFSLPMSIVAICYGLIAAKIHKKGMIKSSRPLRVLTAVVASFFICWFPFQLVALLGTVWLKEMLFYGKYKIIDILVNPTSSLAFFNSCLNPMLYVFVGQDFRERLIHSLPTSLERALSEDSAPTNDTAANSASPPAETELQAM

The target of this assay is human FPR2 (Homo sapiens (Human), UniProt P25090). Briefly: FPR2 cyclic adenosine monophosphate (cAMP) assay. In kind it is cell-based. Conditions: CHO cells overexpressing human FPR2; cAMP assay; read-out: hFPR2 agonist activity EC50 (hFPR2 Assay). The method, then:
FPR2 and FPR1 Cyclic Adenosine Monophosphate (cAMP) Assays. A mixture of forskolin (5 μM final for FPR2 or 10 μM final for FPR1) and IBMX (200 μM final) were added to 384-well Proxiplates (Perkin-Elmer) pre-dotted with test compounds in DMSO (1% final) at final concentrations in the range of 1.7 nM to 100 μM. Chinese Hamster Ovary cells (CHO) overexpressing human FPR1 or human FPR2 receptors were cultured in F-12 (Ham's) medium supplemented with 10% qualified FBS, 250 μg/ml zeocin and 300 μg/ml hygromycin (Life Technologies). Reactions were initiated by adding 2,000 human FPR2 cells per well or 4,000 human FPR1 cells per well in Dulbecco's PBS (with calcium and magnesium) (Life Technologies) supplemented with 0.1% BSA (Perkin-Elmer). The reaction mixtures were incubated for 30 min at room temperature. The level of intracellular cAMP was determined using the HTRF HiRange cAMP assay reagent kit (Cisbio) according to manufacturer's instruction. Solutions of cryptate conjugated anti-cAMP and d2 flurorophore-labelled cAMP were made in a supplied lysis buffer separately. Upon completion of the reaction, the cells were lysed with equal volume of the d2-cAMP solution and anti-cAMP solution. After a 1-h room temperature incubation, time-resolved fluorescence intensity was measured using the Envision (Perkin-Elmer) at 400 nm excitation and dual emission at 590 nm and 665 nm. A calibration curve was constructed with an external cAMP standard at concentrations ranging from 1 μM to 0.1 pM by plotting the fluorescent intensity ratio from 665 nm emission to the intensity from the 590 nm emission against cAMP concentrations. The potency and activity of a compound to inhibit cAMP production was then determined by fitting to a 4-parametric logistic equation from a plot of cAMP level versus compound concentrations.
In general terms: Changes in cAMP serve as a functional read-out for many G protein-coupled receptors.
On to `C[C@@H]1CN(c2ccc(N3CCC[C@@H](NC(=O)Nc4ccc(C(F)(F)F)cc4)C3=O)cc2)C[C@H](C)O1` [Example 43], for which the EC50 (in general, the concentration needed to bring the measured effect to its halfway point) lay in the range of 10 to 100 nM.
Next, `CC1CCN(c2ccc(N3CCC[C@@H](NC(=O)Nc4ccc(C(F)(F)F)cc4)C3=O)cc2)CC1` [Example 41]: 10 to 100 nM.
Under `O=C(Nc1ccc(C(F)(F)F)cc1)N[C@@H]1CCCN(c2ccc(N3CCCC(CO)C3)nc2)C1=O` (stereo partly drawn) [Example 64] stands 100 to 1000 nM.
Under `COC[C@@H]1CCCN1c1ccc(N2CCC[C@@H](NC(=O)Nc3ccc(C(F)(F)F)cn3)C2=O)cc1` [Example 24] stands 100 to 1000 nM; under `O=C(Nc1ccc(C(F)(F)F)cc1)N[C@@H]1CCCN(c2ccc(N3CCC(F)(F)C3)cc2)C1=O` [Example 68], not above 10 nM.
On to `O=C(Nc1ccc(C(F)(F)F)cc1)N[C@@H]1CCCN(c2ccc(N3CCOCC3)cc2F)C1=O` [Example 53], for which the EC50 fell in the range of 10 to 100 nM.
In the case of `O=C(Nc1ccc(C(F)(F)F)cc1)N[C@@H]1CCCN(c2ccc(N3CCN(CCO)CC3)nc2)C1=O` [Example 61], the half-maximal effective concentration (EC50) fell in the range of 10 to 100 nM.
Under `O=C(Nc1ccc(Cl)cc1)N[C@@H]1CCCN(c2ccc(N3C[C@@H](F)[C@@H](F)C3)cc2)C1=O` [Example 98] stands not above 10 nM; under `O=C(Nc1ccc(C(F)(F)F)cn1)N[C@@H]1CCCN(c2ccc(N3CCCCC3=O)cc2)C1=O` [Example 49], 100 to 1000 nM.
Under `CC1CCN(c2ccc(N3CCC[C@@H](NC(=O)Nc4ccc(C(F)(F)F)cc4)C3=O)cn2)CC1` [Example 59] stands 10 to 100 nM; under `O=C(Nc1ccc(Cl)cc1)N[C@@H]1CCCN(c2ccc(N3CCCC(CO)C3)cc2)C1=O` (stereo partly drawn) [Example 78], not above 10 nM.
Next, `CN(C)C1CCN(c2ccc(N3CCC[C@@H](NC(=O)Nc4ccc(Cl)cc4)C3=O)c(F)c2F)C1` (stereo partly drawn) [Example 75]: not above 10 nM; `CN(C)C(=O)C1CCN(c2ccc(N3CCC[C@@H](NC(=O)Nc4ccc(Cl)cc4F)C3=O)cc2)C1` (stereo partly drawn) [Example 86]: not above 10 nM; `O=C(Nc1ccc(Cl)cc1)N[C@@H]1CCCN(c2ccc(N3CCC(C4CC4)C3)cc2)C1=O` (stereo partly drawn) [Example 97]: not above 10 nM.
For the molecule `CS(=O)(=O)C1CCN(c2cc(F)c(N3CCC[C@@H](NC(=O)Nc4ccc(Cl)cc4F)C3=O)c(F)c2)C1` (stereo partly drawn) [Example 90], the EC50 was not above 10 nM.
Next, `O=C(Nc1ccc(Cl)cc1)N[C@@H]1CCCN(c2ccc(N3CCC(O)(C(F)(F)F)CC3)cc2)C1=O` [Example 100]: not above 10 nM; `CN1CCN(c2ccc(N3CCC[C@@H](NC(=O)Nc4ccc(C(F)(F)F)cc4)C3=O)cc2)CC1` [Example 44]: 10 to 100 nM.
Under `CS(=O)(=O)C1CCN(c2ccc(N3CCC[C@@H](NC(=O)Nc4ccc(C(F)(F)F)cc4)C3=O)cc2)C1` (stereo partly drawn) [Example 108] stands not above 10 nM; under `O=C(Nc1ccc(C(F)(F)F)cc1)N[C@@H]1CCCN(c2ccc(N3CCC(CO)C3)cc2)C1=O` (stereo partly drawn) [Example 73], not above 10 nM; under `O=C(Nc1ccc(Cl)cc1)N[C@@H]1CCCN(c2ccc(N3CCC4(CC4)C3)cc2)C1=O` [Example 96], not above 10 nM.
Next, `C[C@@H]1COCCN1c1ccc(N2CCC[C@@H](NC(=O)Nc3ccc(C(F)(F)F)nc3)C2=O)cc1` [Example 7]: 10 to 100 nM; `O=C(Nc1ccc(Cl)cc1F)N[C@@H]1CCCN(c2ccc(N3CC[C@@H](O)C3)nc2)C1=O` [Example 106]: not above 10 nM; `CC(=O)N1CCN(c2ccc(N3CCC[C@@H](NC(=O)Nc4ccc(C(F)(F)F)cc4)C3=O)cc2)CC1` [Example 29]: 100 to 1000 nM.
As to `O=C(Nc1ccc(Cl)nc1)N[C@@H]1CCCN(c2ccc(N3CC[C@@H](O)C3)cc2)C1=O` [Example 6], the half-maximal effective concentration (EC50) lay within 10 to 100 nM.
Under `O=C(Nc1ccc(C(F)(F)F)cc1)N[C@@H]1CCCN(c2ccc(N3CC[C@@H](O)C3)nc2)C1=O` [Example 55] stands 10 to 100 nM; under `CC1(F)CCN(c2ccc(N3CCC[C@@H](NC(=O)Nc4ccc(Cl)cc4)C3=O)cc2)CC1` [Example 99], not above 10 nM.
Next, `C[C@@H]1COCCN1c1ccc(N2CCC[C@@H](NC(=O)Nc3ccc(C(F)(F)F)cn3)C2=O)cc1` [Example 48]: 100 to 1000 nM.
As for `CN(CC(F)(F)F)C1CCN(c2ccc(N3CCC[C@@H](NC(=O)Nc4ccc(Cl)cc4)C3=O)c(F)c2F)C1` (stereo partly drawn) [Example 85], the EC50 was not above 10 nM.
Next, `COCC1COCCN1c1ccc(N2CCC[C@@H](NC(=O)Nc3ccc(C(F)(F)F)nc3)C2=O)cc1` (stereo partly drawn) [Example 22]: 100 to 1000 nM; `CS(=O)(=O)C1CCN(c2ccc(N3CCC[C@@H](NC(=O)Nc4ccc(Cl)cc4F)C3=O)c(F)c2F)C1` (stereo partly drawn) [Example 89]: not above 10 nM; `O=C(Nc1ccc(C(F)(F)F)cc1)N[C@@H]1CCCN(c2ccc(N3CC[C@H](O)C3)cc2)C1=O` [Example 3]: 10 to 100 nM.
Next, `O=C(Nc1ccc(C(F)(F)F)cc1)N[C@@H]1CCCN(c2ccc(N3CCOCC3)cc2)C1=O` [Example 46]: not above 10 nM; `COC1CCN(c2ccc(N3CCC[C@@H](NC(=O)Nc4ccc(Cl)cc4)C3=O)cc2)C1` (stereo partly drawn) [Example 76]: not above 10 nM; `COCC1COCCN1c1ccc(N2CCC[C@@H](NC(=O)Nc3ccc(C(F)(F)F)cc3)C2=O)cc1` (stereo partly drawn) [Example 21]: not above 10 nM.
Consider `O=C(Nc1ccc(C(F)(F)F)cc1)N[C@@H]1CCCN(c2ccc(N3CC(O)C(F)C3)cc2)C1=O` (stereo partly drawn) [Example 74], for which the EC50 was not above 10 nM.
Next, `COCC1CCCCN1c1ccc(N2CCC[C@@H](NC(=O)Nc3ccc(C(F)(F)F)nc3)C2=O)cc1` (stereo partly drawn) [Example 16]: 10 to 100 nM.
With `CC1(O)CCN(c2ccc(N3CCC[C@@H](NC(=O)Nc4ccc(Cl)cc4)C3=O)cc2)C1` (stereo partly drawn) [Example 94], the EC50 was not above 10 nM.
Under `COc1ccc(NC(=O)N[C@@H]2CCCN(c3ccc(N4CCOC[C@H]4C)cc3)C2=O)cc1` [Example 36] stands 10 to 100 nM.
Turning to `O=C(Nc1ccc(C(F)(F)F)cc1)N[C@@H]1CCCN(c2ccc(N3CCCC(O)C3)cc2)C1=O` (stereo partly drawn) [Example 31], the EC50 is 10 to 100 nM.
Next, `O=C(Nc1ccc(C(F)(F)F)cc1)N[C@@H]1CCCN(c2ccc(N3CCCC(C(F)(F)F)C3)cc2)C1=O` (stereo partly drawn) [Example 72]: not above 10 nM; `O=C(Nc1ccc(C(F)(F)F)nc1)N[C@@H]1CCCN(c2ccc(N3[C@@H]4CC[C@H]3COC4)nc2)C1=O` [Example 62]: 100 to 1000 nM; `COC1CCN(c2ccc(N3CCC[C@@H](NC(=O)Nc4ccc(C(F)(F)F)cc4)C3=O)cn2)CC1` [Example 58]: 10 to 100 nM.
In the case of `C[C@H]1COCCN1c1ccc(N2CCC[C@@H](NC(=O)Nc3ccc(C(F)(F)F)nc3)C2=O)cc1` [Example 8], the EC50 lay in the range of 100 to 1000 nM.
Under `O=C(Nc1ccc(Cl)cc1)N[C@@H]1CCCN(c2ccc(N3CCC4(CCCO4)CC3)cc2)C1=O` [Example 101] stands not above 10 nM; under `O=C(Nc1ccc(Cl)cc1F)N[C@@H]1CCCN(c2ccc(N3CCCCC3=O)c(F)c2F)C1=O` [Example 80], not above 10 nM; under `CC(C)N1CCN(c2ccc(N3CCC[C@@H](NC(=O)Nc4ccc(C(F)(F)F)cc4)C3=O)cc2)CC1` [Example 33], 10 to 100 nM.
Under `O=C(Nc1ccc(C(F)(F)F)cc1)N[C@@H]1CCCN(c2ccc(N3CC[C@@H](O)C3)cc2)C1=O` [Example 1, 1-(1-(4-((R)-3-Hydroxypyrrolidin-1-yl)phenyl)-2-oxopiperidin-3-yl)-3-(4-(trifluoromethyl)phenyl)urea] stands not above 10 nM; under `O=C(Nc1ccc(C(F)(F)F)cn1)N[C@@H]1CCCN(c2ccc(N3CCCCC3=O)cc2F)C1=O` [Example 51], 100 to 1000 nM; under `O=C(Nc1cnc(C(F)(F)F)cn1)N[C@@H]1CCCN(c2ccc(N3CCC(F)(F)C3)cc2)C1=O` [Example 67], ≤ 10 nM and 10 to 100 nM.
Turning to `COC[C@@H]1CCCN1c1ccc(N2CCC[C@@H](NC(=O)Nc3ccc(C(F)(F)F)cn3)C2=O)cn1` [Example 63], the EC50 is 100 to 1000 nM.
Turning to `CN(C)C1CN(c2ccc(N3CCC[C@@H](NC(=O)Nc4ccc(C(F)(F)F)cc4)C3=O)cc2)CC1O` (stereo partly drawn) [Example 79], the EC50 was not above 10 nM.
Under `C[C@H]1COCCN1c1ccc(N2CCC[C@@H](NC(=O)Nc3ccc(C(F)(F)F)cc3)C2=O)cc1` [Example 37] stands 10 to 100 nM; under `COCC1CCCN1c1ccc(N2CCC[C@@H](NC(=O)Nc3ccc(C(F)(F)F)cc3)C2=O)cc1` (stereo partly drawn) [Example 66], not above 10 nM.
Under `O=C(Nc1ccc(Cl)cc1F)N[C@@H]1CCCN(c2ccc(N3CC[C@@H](F)C3)cc2)C1=O` [Example 82] stands not above 10 nM; under `CN(C)C1CN(c2ccc(N3CCC[C@@H](NC(=O)Nc4ccc(C(F)(F)F)cc4)C3=O)cc2)CC1F` (stereo partly drawn) [Example 84], not above 10 nM.
Under `CN(C)C1CCN(c2ccc(N3CCC[C@@H](NC(=O)Nc4ccc(Cl)cc4)C3=O)cn2)C1` (stereo partly drawn) [Example 103] stands not above 10 nM; under `O=C(Nc1ccc(C(F)(F)F)cc1)N[C@@H]1CCCN(c2ccc(N3CCCCC3=O)cc2F)C1=O` [Example 52], 10 to 100 nM.
